Target: T1, HSP90α protein (N-terminal) (Homo sapiens, UniProt P07900)
T1 construct: purchased BPS Bioscience #50298
Assay: HSP90α-binding fluorescent polarization (FP) assay, competition with BODIPY-labeled RNK04010
Conditions: probe RNK04010 (BODIPY-labeled) 5 nM, 25° C. 300 min
Procedure: (§1) Binding of test compounds to HSP90α protein was measured by fluorescent polarization (FP) using the HSP90α (N-terminal) Assay Kit (BPS Bioscience, #50298), following the manufacturer's instructions, except as noted. Fluorescently labeled HSP90-binding compounds, either the provided FITC-geldanamycin (5 nM final concentration) or RNK04010, a triazolone-based HSP90-binding small molecule labeled with BODIPY through a piperizine-phenyl linker (5 nM final concentration) were employed. A 2.5-fold serial dilution of each test compound ranging from 20 μM to 5.2 nM was assayed for binding to HSP90α. After the final step of adding HSP90α protein to each assay well, plates were mixed by brief shaking, incubated at 25° C. for 120 min for FITC-geldanamycin or 300 min for RNK04010, and fluorescence was measured using a PerkinElmer EnVision Plate Reader.
(§2) HSP90α-binding fluorescent polarization (FP) assays measuring competition with the fluorescently labeled HSP90 binders, FITC-geldanamycin or RNK04010 (BODIPY-labeled), were applied to assess the binding capabilities of CHAMP molecules to HSP90.

IC50 [nM] | SMILES
100 to 1000 | Cc1sc2c(c1C)C(c1ccc(Cl)cc1)=N[C@@H](CC(=O)N1CCC(CN3CCN(Cc4ccc(-n5c(C(=O)NC(C)C)nnc5-c5cc(C(C)C)c(O)cc5O)cc4)CC3)CC1)c1nnc(C)n1-2 [Compound 77]
> 1000 | COc1cccc(-c2cc(C(=O)Nc3ccc(-c4ccc(OC5CCN(C)CC5)cc4COCN(C)CC[C@@H]4N=C(c5ccc(Cl)cc5)c5c(sc(C)c5C)-n5c(C)nnc54)cc3)ccc2OC)c1 [Compound 133]
> 1000 | CCOc1cc(N2CCC(C(=O)NCc3ccc(-n4c(O)nnc4-c4cc(CC)c(O)cc4O)cc3F)CC2)ccc1Nc1ncc2c(n1)N(C)c1ccccc1C(=O)N2C [Compound 125]
< 100 | Cc1sc2c(c1C)C(c1ccc(Cl)cc1)=N[C@@H](CC(=O)N1CCC(CN3CCN(Cc4ccc(-n5c(C(N)=O)nnc5-c5cc(C(C)C)c(O)cc5O)cc4)CC3)CC1)c1nnc(C)n1-2 [Compound 78]
> 1000 | CCCc1cc(-c2nnc(O)n2-c2ccc(CNC(=O)C3CCN(c4ccc(Nc5ncc6c(n5)N(C)c5ccccc5C(=O)N6C)c(OCC)c4)CC3)cc2)c(O)cc1O [Compound 121]
< 100 | CCc1cc(-c2nnc(C(=O)NC3CC3)n2-c2ccc(CN3CCN(CC4CCN(C(=O)C[C@@H]5N=C(c6ccc(Cl)cc6)c6c(sc(C)c6C)-n6c(C)nnc65)CC4)CC3)cc2)c(O)cc1O [Compound 101]
> 1000 | Cc1sc2c(c1C)C(c1ccc(Cl)cc1)=N[C@@H](CC(=O)NCCOCCOCCOCCOc1ccc(Nc3cc(-n4nc(C(F)(F)F)c5c4CC(C)(C)CC5=O)ccc3C(N)=O)cc1)c1nnc(C)n1-2 [Compound 162]
100 to 1000 | CCCc1cc(-c2nnc(O)n2-c2ccc(CN3CCN(C(=O)C4CCN(c5ccc(Nc6ncc7c(n6)N(C)c6ccccc6C(=O)N7C)c(OCC)c5)CC4)CC3)cc2)c(O)cc1O [Compound 128]
> 1000 | COc1cccc(-c2cc(C(=O)Nc3ccc(-c4ccc(OC5CCN(C)CC5)cc4OCCN(C)C(=O)CNC(=O)C[C@@H]4N=C(c5ccc(Cl)cc5)c5c(sc(C)c5C)-n5c(C)nnc54)cc3)ccc2OC)c1 [Compound 83]
< 100 | Cc1sc2c(c1C)C(c1ccc(Cl)cc1)=N[C@@H](CC(=O)N1CCC(CCN3CCC(Cc4ccc(-n5c(O)nnc5-c5cc(C(C)C)c(O)cc5O)cc4)CC3)CC1)c1nnc(C)n1-2 [Compound 55]
100 to 1000 | Cc1sc2c(c1C)C(c1ccc(Cl)cc1)=N[C@@H](CC(=O)N1CCN(Cc3ccc(-n4c(O)nnc4-c4cc(C(C)C)c(O)cc4O)cc3)[C@H](C)C1)c1nnc(C)n1-2 [Compound 106]
< 100 | Cc1sc2c(c1C)C(c1ccc(Cl)cc1)=N[C@@H](CC(=O)NCc1ccc(CN3CCC(Cc4ccc(-n5c(O)nnc5-c5cc(C(C)C)c(O)cc5O)cc4)CC3)cc1)c1nnc(C)n1-2 [Compound 60]
< 100 | CCc1cc(-c2nnc(C(=O)NC(C)C)n2-c2ccc(CN3CCN(CC4CCN(C(=O)C[C@@H]5N=C(c6ccc(Cl)cc6)c6c(sc(C)c6C)-n6c(C)nnc65)CC4)CC3)cc2)c(O)cc1O [Compound 102]
< 100 | CCNC(=O)c1nnc(-c2cc(CC)c(O)cc2O)n1-c1ccc(CN2CCN(CC3CCN(C(=O)C[C@@H]4N=C(c5ccc(Cl)cc5)c5c(sc(C)c5C)-n5c(C)nnc54)CC3)CC2)cc1 [Compound 59]

Target: T1, HSP90α protein (N-terminal)
Assay: HSP90α-binding fluorescent polarization (FP) assay, competition with FITC-geldanamycin
Conditions: probe FITC-geldanamycin 5 nM, 25° C. 120 min
Procedure: as §1, §2

IC50 [nM] | SMILES
100 to 1000 | Cc1cc(-c2nnc(O)n2-c2ccc(CN3CCN(CC4CCN(C(=O)C[C@@H]5N=C(c6ccc(Cl)cc6)c6c(sc(C)c6C)-n6c(C)nnc65)CC4)CC3)c(F)c2)c(O)cc1O [Compound 54]
100 to 1000 | Cc1sc2c(c1C)C(c1ccc(Cl)cc1)=N[C@@H](CC(=O)N[C@@H](C)c1ccc(CN3CCN(Cc4ccc(-n5c(O)nnc5-c5cc(C(C)C)c(O)cc5O)cc4)CC3)cc1)c1nnc(C)n1-2 [Compound 38]
100 to 1000 | Cc1sc2c(c1C)C(c1ccc(Cl)cc1)=N[C@@H](CC(=O)N1CCC(CCN3CCN(c4ccc(-n5c(O)nnc5-c5cc(C(C)C)c(O)cc5O)cc4)CC3)CC1)c1nnc(C)n1-2 [Compound 28]
100 to 1000 | CCc1cc(-c2nnc(O)n2-c2ccc(CN3CCC(C(=O)N4CCC(Nc5ncc(NC(=O)c6cc(C(=O)c7c(Cl)ccc(Cl)c7F)c[nH]6)cn5)CC4)CC3)cc2)c(O)cc1O [Compound 116]
